Test results taken from PMC10452110, “Indole-3-Acetamido-Polyamines as Antimicrobial Agents and Antibiotic Adjuvants” (Biomolecules, 2023).
Converted amounts (≈) assume the structure as drawn. Where two headings read alike, the source gives them in different places.

Assays:
[1] = system: Staphylococcus aureus (ATCC 25923); test: Intrinsic antimicrobial activity (MIC) against S. aureus; assay type: cell-based; conditions: ATCC25923, S. aureus ATCC 25923, mean (n = 3), read-out: MIC S. a
Method: (§1) The susceptibility of bacterial strains Staphylococcus aureus (ATCC 25923), Escherichia coli (ATCC 25922) and Pseudomonas aeruginosa (ATCC 27853) to antibiotics and compounds was determined using previously reported protocols. Additional antimicrobial evaluation against MRSA (ATCC 43300), Klebsiella pneumoniae (ATCC 700603), Acinetobacter baumannii (ATCC 19606), Candida albicans (ATCC 90028) and Cryptococcus neoformans (ATCC 208821) was undertaken at the Community for Open Antimicrobial Drug Discovery at The University of Queensland (Australia) according to their standard protocols, as reported previously.

[2] = system: Cryptococcus neoformans (ATCC 208821); test: Intrinsic antifungal activity (MIC) against C. neoformans; assay type: cell-based; conditions: ATCC208821, C. neoformans ATCC 208821, mean (n = 2), read-out: MIC C. n
Method: as §1

[3] = system: Pseudomonas aeruginosa (ATCC 27853); test: Intrinsic antimicrobial activity (MIC) against P. aeruginosa; assay type: cell-based; conditions: ATCC27853, P. aeruginosa ATCC 27853, mean (n = 3), read-out: MIC P. a
Method: as §1

[4] = system: Candida albicans (ATCC 90028); test: Intrinsic antifungal activity (MIC) against C. albicans; assay type: cell-based; conditions: ATCC90028, C. albicans ATCC 90028, mean (n = 2), read-out: MIC C. a
Method: as §1

[5] = system: Escherichia coli (ATCC 25922); test: Intrinsic antimicrobial activity (MIC) against E. coli; assay type: cell-based; conditions: ATCC25922, E. coli ATCC 25922, mean (n = 3), read-out: MIC E. c
Method: as §1

[6] = system: human red blood cells; test: Hemolytic assay; assay type: cell-based; conditions: mean (n = 2)
Method: Hemolysis assays were conducted using the protocols previously reported.

[7] = system: P. aeruginosa ATCC 27853; test: Enhancement of doxycycline action against P. aeruginosa; assay type: cell-based, Pseudomonas aeruginosa; conditions: doxycycline at 4.5 µM
Method: (§2) Antibiotic enhancer concentrations were determined using previously reported protocols.

[8] = system: E. coli ATCC 25922; test: Enhancement of erythromycin action against E. coli; assay type: cell-based, Escherichia coli; conditions: erythromycin at 10.9 µM
Method: as §2

[9] = Cytotoxicity assay; assay type: cell-based; conditions: human; HEK293 cells; mean (n = 2); read-out: Cytotoxicity: concentration of compound at 50% cytotoxicity (IC50)
Method: Cytotoxicity assays were conducted using the protocols previously reported.

[10] = system: MRSA (ATCC 43300); test: Intrinsic antimicrobial activity (MIC) against MRSA; assay type: cell-based; conditions: Staphylococcus aureus, read-out: MIC MRSA
Method: as §1

Row | SMILES | MIC [1] [µM] | MIC [2] [µM] | MIC [3] [µM] | MIC [4] [µM] | MIC [5] [µM] | Hemolysis: concentration of compound at 10% hemolytic activity (HC10) [6] [µM] | Dox/P. a fold change (ratio between intrinsic MIC of the test compound and combination MIC) [7] [fold] | Dox/P. a: concentration required to restore doxycycline activity (combination MIC) [7] [µM] | Eryth/E. c: concentration required to restore erythromycin activity (combination MIC) [8] [µM] | IC50 [9] [µM] | MIC ([10]; MRSA ATCC 43300, mean (n = 2)) [µM] | MIC [10] [µM]
1 | Cc1cccc2c(CC(=O)NCCCNCCCCCCCCCCCCNCCCNC(=O)Cc3c[nH]c4c(C)cccc34)c[nH]c12.O=C(O)C(F)(F)F.O=C(O)C(F)(F)F [Compound 20f, N^1,N^12-Bis(3-(2-(7-methyl-1H-indol-3-yl)acetamido)propyl)dodecane-1,12-diaminium 2,2,2-trifluoroacetate] | 28.2 | ≤ 0.28 | > 226 | ≤ 0.28 | 56.5 | ≤0.28 | 1 | > 226 | 28.2 | > 36 | ≤ 0.28 | 
2 | [H]/N=C(/N)N[C@H]1[C@H](O)[C@@H](O)[C@H](O[C@@H]2O[C@@H](C)[C@](O)(C=O)[C@H]2O[C@@H]2O[C@@H](CO)[C@H](O)[C@@H](O)[C@@H]2NC)[C@@H](N/C(N)=N\[H])[C@@H]1O [streptomycin, reference compound] | 21.5 (≈ 12.5 µg/mL) |  | 21.5 (≈ 12.5 µg/mL) |  | 21.5 (≈ 12.5 µg/mL) |  |  |  |  |  |  | 
3 | OC(Cn1cncn1)(Cn1cncn1)c1ccc(F)cc1F [fluconazole, reference compound] |  | 26 (≈ 7.96 µg/mL) |  | 0.4 (≈ 0.123 µg/mL) |  |  |  |  |  |  |  | 
4 | Cc1cccc2c(CC(=O)NCCCNCCCCNCCCNC(=O)Cc3c[nH]c4c(C)cccc34)c[nH]c12.O=C(O)C(F)(F)F.O=C(O)C(F)(F)F [Compound 20a, N^1,N^4-Bis(3-(2-(7-methyl-1H-indol-3-yl)acetamido)propyl)butane-1,4-diaminium 2,2,2-trifluoroacetate] | 32.3 | ≤ 0.32 | > 259 | 41.4 | 259 | 4.11 | 1 | > 259 | 64.7 | > 41 | ≤ 0.32 | 
5 | COc1cccc2c(CC(=O)NCCCNCCCCCCNCCCNC(=O)Cc3c[nH]c4c(OC)cccc34)c[nH]c12.O=C(O)C(F)(F)F.O=C(O)C(F)(F)F [Compound 19b, N^1,N^6-Bis(3-(2-(7-methoxy-1H-indol-3-yl)acetamido)propyl)hexane-1,6-diaminium 2,2,2-trifluoroacetate] | 30 | < 0.2 | > 240 | > 38 | 240 |  | 1 | > 240 | 240 | > 38 | < 0.2 | 
6 | O=C(Cc1c[nH]c2c(F)cccc12)NCCCNCCCCCCCNCCCNC(=O)Cc1c[nH]c2c(F)cccc12.O=C(O)C(F)(F)F.O=C(O)C(F)(F)F [Compound 18c, N^1,N^7-Bis(3-(2-(7-fluoro-1H-indol-3-yl)acetamido)propyl)heptane-1,7-diaminium 2,2,2-trifluoroacetate] | 30.4 | ≤ 0.3 | > 243 | 38.9 | > 243 | 1.94 | > 1 | 243 | 243 | > 39 | ≤ 0.3 | 
7 | O=C(Cc1c[nH]c2c(F)cccc12)NCCCNCCCCCCCCCCCCNCCCNC(=O)Cc1c[nH]c2c(F)cccc12.O=C(O)C(F)(F)F.O=C(O)C(F)(F)F [Compound 18f, N^1,N^12-Bis(3-(2-(7-fluoro-1H-indol-3-yl)acetamido)propyl)dodecane-1,12-diaminium 2,2,2-trifluoroacetate] | 7 | ≤ 0.28 | 224 | ≤ 0.28 | 28 | ≤0.28 | 1 | 224 | 14.0 | 27.2 | ≤ 0.28 | 
8 | Cc1ccc2[nH]cc(CC(=O)NCCCNCCCCCCCCNCCCNC(=O)Cc3c[nH]c4ccc(C)cc34)c2c1.O=C(O)C(F)(F)F.O=C(O)C(F)(F)F [Compound 17d, N^1,N^8-Bis(3-(2-(5-methyl-1H-indol-3-yl)acetamido)propyl)octane-1,8-diaminium 2,2,2-trifluoroacetate] | 15.1 | ≤ 0.3 | > 241 | 2.41 | 241 | 0.42 | > 1 | 241 | 121 | > 39 | ≤ 0.3 | 
9 | CC/C(=C(\c1ccccc1)c1ccc(OCCN(C)C)cc1)c1ccccc1 [tamoxifen, reference compound] |  |  |  |  |  |  |  |  |  | 24 |  | 
10 | O=C(N[C@H](CO)[C@H](O)c1ccc([N+](=O)[O-])cc1)C(Cl)Cl [chloramphenicol, reference compound] | 1.5 to 3 (≈ 0.485 to 0.969 µg/mL) |  |  |  |  |  |  |  |  |  |  | 
11 | CN[C@H](CC(C)C)C(=O)N[C@H]1C(=O)N[C@@H](CC(N)=O)C(=O)N[C@H]2C(=O)N[C@H]3C(=O)N[C@H](C(=O)N[C@H](C(=O)O)c4cc(O)cc(O)c4-c4cc3ccc4O)[C@H](O)c3ccc(c(Cl)c3)Oc3cc2cc(c3O[C@@H]2O[C@H](CO)[C@@H](O)[C@H](O)[C@H]2O[C@H]2C[C@](C)(N)[C@H](O)[C@H](C)O2)Oc2ccc(cc2Cl)[C@H]1O [vancomycin, reference compound] |  |  |  |  |  |  |  |  |  |  |  | 0.7 (≈ 1.01 µg/mL)
12 | Cc1cccc2c(CC(=O)NCCCNCCCCCCCCNCCCNC(=O)Cc3c[nH]c4c(C)cccc34)c[nH]c12.O=C(O)C(F)(F)F.O=C(O)C(F)(F)F [Compound 20d, N^1,N^8-Bis(3-(2-(7-methyl-1H-indol-3-yl)acetamido)propyl)octane-1,8-diaminium 2,2,2-trifluoroacetate] | 30.2 | < 0.2 | > 241 | 38.6 | 241 |  | 1 | > 241 | 241 | > 39 | < 0.2 | 
13 | COc1cccc2c(CC(=O)NCCCNCCCCCCCCCCNCCCNC(=O)Cc3c[nH]c4c(OC)cccc34)c[nH]c12.O=C(O)C(F)(F)F.O=C(O)C(F)(F)F [Compound 19e, N^1,N^10-Bis(3-(2-(7-methoxy-1H-indol-3-yl)acetamido)propyl)decane-1,10-diaminium 2,2,2-trifluoroacetate] | 28.1 | < 0.2 | > 225 | > 36 | > 225 |  | > 1 | 225 | 225 | > 36 | < 0.2 | 
